{"source": "patent US12630501B2", "about": "“Anti-fibrotic compounds and use thereof” (HADASIT MEDICAL RESEARCH SERVICES AND DEVELOPMENT LTD., priority 2019, dated 2026)", "key": {"[1]": {"test_system": "BLM-treated C57BL/6 WT mice", "settings": "prior finding restated; cited from earlier work"}, "HDAC4": {"biological_target": "HDAC4 (Homo sapiens, UniProt P56524)", "sequence (P56524 whole entry, species assumed)": "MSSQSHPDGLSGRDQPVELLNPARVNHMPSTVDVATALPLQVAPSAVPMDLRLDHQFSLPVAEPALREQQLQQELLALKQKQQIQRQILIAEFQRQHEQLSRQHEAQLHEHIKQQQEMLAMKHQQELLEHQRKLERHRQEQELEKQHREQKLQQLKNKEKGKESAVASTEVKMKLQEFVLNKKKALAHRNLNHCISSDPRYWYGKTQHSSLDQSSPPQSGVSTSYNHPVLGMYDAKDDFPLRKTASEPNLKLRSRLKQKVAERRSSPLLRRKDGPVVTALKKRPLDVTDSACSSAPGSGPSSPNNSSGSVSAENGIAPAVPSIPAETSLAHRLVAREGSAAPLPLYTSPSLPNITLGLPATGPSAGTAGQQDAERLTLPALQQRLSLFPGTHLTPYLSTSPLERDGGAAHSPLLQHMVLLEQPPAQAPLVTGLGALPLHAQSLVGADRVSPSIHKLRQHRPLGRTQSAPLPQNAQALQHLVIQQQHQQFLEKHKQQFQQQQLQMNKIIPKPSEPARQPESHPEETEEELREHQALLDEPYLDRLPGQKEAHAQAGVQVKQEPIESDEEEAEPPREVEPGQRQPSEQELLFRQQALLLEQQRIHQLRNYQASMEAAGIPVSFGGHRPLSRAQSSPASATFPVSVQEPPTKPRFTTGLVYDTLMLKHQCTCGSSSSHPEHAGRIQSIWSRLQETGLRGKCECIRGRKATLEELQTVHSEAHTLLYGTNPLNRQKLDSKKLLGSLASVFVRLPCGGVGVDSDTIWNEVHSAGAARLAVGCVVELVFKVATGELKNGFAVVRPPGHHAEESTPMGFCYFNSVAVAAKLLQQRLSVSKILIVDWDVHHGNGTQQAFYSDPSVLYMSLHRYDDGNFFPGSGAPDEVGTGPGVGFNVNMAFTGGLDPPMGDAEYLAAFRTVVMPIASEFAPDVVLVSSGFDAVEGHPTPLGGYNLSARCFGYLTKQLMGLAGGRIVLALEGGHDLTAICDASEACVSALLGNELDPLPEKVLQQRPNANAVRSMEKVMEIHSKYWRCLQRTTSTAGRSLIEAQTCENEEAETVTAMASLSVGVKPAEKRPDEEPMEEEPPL", "settings": "prostate cancer cells; cited from earlier work"}, "Ku70": {"test_system": "Ku70", "assay": "Ku70 immunoprecipitation with pan-acetyl / Ku70 immunoblot in IPF-lung myofibroblasts", "assay_type": "cell-based, human", "settings": "CMH 30 μM, 72 h", "protocol": "Human lung myofibroblasts Differentiated fibroblasts from IPF-lungs and controls from patient lung biopsies performed for tumor diagnosis were obtained under a protocol detailed in Wallach-Dayan et al., J. Autoimmun. 59: 67-76, 2015. LL 97A (AlMy) (ATCC® CCL-191™)-IPF-lung, and LL 24 (ATCC® CCL-151™)-normal lung fibroblast cell lines were used.\nImmunoprecipitation and immunoblotting Standard protocols were performed as described in Golan-Gerstl et al., Am. J. Respir. Cell Mol. Biol. 47: 271-279, 2012.\nFLIP downregulation from an OD of 1.85 to 0.49 (about 3.5-fold) was detected in WB (FIG. 4F), and a […] from a mean fluorescence intensity (MFI)=10^3 to only 10^1 was detected with flow cytometry (FIG. 4G). Thus, SIRT1-mediated Ku70-deacetylation stabilizes IPF-lung myofibroblast FLIP via Ku70/FLIP complex. This effect of CMH on Ku70 further disrupts Ku70/FLIP complex and destabilizes FLIP in IPF-lung myofibroblasts.\nIPF cell line ATCC-191 (0.5×10^6), were exposed in culture (10% DMEM) to a compound of Formula 6 (1 or 3 μM) vs. 4% DMSO (vehicle) for 16 h. Ku70 immunoprecipitation with subsequent pan-acetyl (FIG. 8A) and immunoblots of Ku70 with anti-Ku70 mAb (FIG. 8B) or FLIP with anti-FLIP mAb (FIG. 8C) were measured. […] IPF-lung myofibroblasts decreased FLIP expression from an OD of 1.00 to 0.51 (about twofold, FIG. 8C)."}, "IPF-lung myofibroblasts": {"test_system": "IPF-lung myofibroblasts", "assay": "Anti-Fas mAb-mediated cell death of IPF-lung myofibroblasts (trypan blue, caspase-3 cleavage)", "assay_type": "cell-based, human", "protocol": "Cell death and apoptosis Apoptosis was assessed with Annexin V affinity labeling, trypan blue exclusion, and caspase-3 cleavage in WB as described in Golan-Gerstl et al., Am. J. Respir. Cell Mol. Biol. 36: 270-275, 2007; Wallach-Dayan et al., PNAS USA 104: 20460-20465, 2007; and Wallach-Dayan et al., Am. J. Physiol. Lung Cell Mol. Physiol. 290: L790-L796, 2006.\nCaspase-8 activation further targets effector caspase-3 and caspase-7, a parallel […] pathway, caspases 6 and 9, MAPKs, and Bim phosphorylations with binding cascades to Bax, Apaf-1, and caspase-9, allowing Bax-mediated cell death to be detected as well. Concomitantly, inhibitors of these processes, including FLIP, show negative interaction with FADD and with the inhibitors of apoptotic proteins (IAPs). […] In addition, CMH increased CH-11 anti-human Fas mAb-mediated IPF-myofibroblast cell death (24 h, 10 μM) above that produced by treatment with the vehicle alone (4% DMSO), as shown by microscope images (FIG. 5A) and trypan blue exclusion (FIG. 5A, quantification in inserts, and FIG. 5B, graphical representation), with 0.9-1×10^5 viable cells in control compared to only 0.3×10^5 cells following CMH. In fact, CMH-treated cells were 10 times more likely to undergo Fas-induced apoptosis (2.8 compared to 0.3), as determined by the OD of cleaved to uncleaved caspase-3 ratios (FIG. 5C). CMH therefore amplifies Fas signaling cascades above those induced by Fas alone. Thus, multiple intracellular anti-apoptotic signaling pathways mediated by SIRT1 and Ku70 were altered by CMH in vitro, which further enhanced Fas-apoptosis cascades."}, "HDAC6": {"biological_target": "T1, HDAC6 (Homo sapiens, UniProt Q9UBN7)", "T1 sequence (Q9UBN7 1-1215)": "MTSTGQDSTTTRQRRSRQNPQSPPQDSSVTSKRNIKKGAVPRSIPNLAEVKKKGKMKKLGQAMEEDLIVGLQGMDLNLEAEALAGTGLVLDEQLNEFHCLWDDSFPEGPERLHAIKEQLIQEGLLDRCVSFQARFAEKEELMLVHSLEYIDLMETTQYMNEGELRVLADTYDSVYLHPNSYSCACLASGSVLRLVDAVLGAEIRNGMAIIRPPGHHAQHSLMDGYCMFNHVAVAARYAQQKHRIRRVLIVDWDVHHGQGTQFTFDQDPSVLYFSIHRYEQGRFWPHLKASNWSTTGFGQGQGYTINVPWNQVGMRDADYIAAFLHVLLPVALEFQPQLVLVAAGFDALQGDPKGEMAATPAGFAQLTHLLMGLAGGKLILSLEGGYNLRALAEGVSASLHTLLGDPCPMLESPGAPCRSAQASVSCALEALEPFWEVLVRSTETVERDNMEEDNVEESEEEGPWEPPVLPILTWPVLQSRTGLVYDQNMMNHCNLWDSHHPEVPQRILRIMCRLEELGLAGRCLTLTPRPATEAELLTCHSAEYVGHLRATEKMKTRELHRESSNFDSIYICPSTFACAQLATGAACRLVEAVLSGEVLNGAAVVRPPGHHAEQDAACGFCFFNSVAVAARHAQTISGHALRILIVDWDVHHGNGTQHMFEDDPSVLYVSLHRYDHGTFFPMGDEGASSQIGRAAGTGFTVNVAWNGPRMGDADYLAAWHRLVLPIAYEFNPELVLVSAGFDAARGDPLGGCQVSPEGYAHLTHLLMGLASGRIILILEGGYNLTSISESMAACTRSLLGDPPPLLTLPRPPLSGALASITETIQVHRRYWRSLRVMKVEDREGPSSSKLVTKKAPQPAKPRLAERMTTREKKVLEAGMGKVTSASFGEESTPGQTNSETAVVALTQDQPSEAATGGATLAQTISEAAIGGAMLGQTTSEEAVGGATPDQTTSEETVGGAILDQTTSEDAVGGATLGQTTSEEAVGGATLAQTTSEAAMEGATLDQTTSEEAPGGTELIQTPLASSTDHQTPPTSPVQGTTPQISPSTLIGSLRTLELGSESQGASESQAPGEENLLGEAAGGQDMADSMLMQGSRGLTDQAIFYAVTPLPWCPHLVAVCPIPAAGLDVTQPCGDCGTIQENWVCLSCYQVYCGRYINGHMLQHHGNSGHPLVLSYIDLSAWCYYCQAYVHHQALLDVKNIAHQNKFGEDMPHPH", "settings": "prostate cancer cells; cited from earlier work"}}, "data": [{"smiles": "Cc1cc(Cl)ccc1OCCCC(=O)NO", "note": "[CMH, 4-(4-chloro-2-methylphenoxy)-N-hydroxybutanamide]", "values": [{"measurement": "Lung fibrosis in in-vivo model, C57BL/6 mice lungs following bleomycin instillation", "setting": "[1]", "result": "attenuate lung fibrosis"}, {"measurement": "Inhibition of HDAC4", "setting": "HDAC4", "result": "not inhibited"}, {"measurement": "Increase of Ku70 acetylation", "setting": "Ku70", "result": "about twofold"}, {"measurement": "Ku70 acetylation, optical density ratio (OD) in pan-acetyl IB of Ku70 IP", "setting": "Ku70; from 2.43 before", "result": 5.6, "unit": "OD"}, {"measurement": "Viable cells, trypan blue exclusion", "setting": "IPF-lung myofibroblasts; CMH plus CH-11 anti-human Fas mAb (24 h, 10 μM), control 0.9-1×10^5", "result": "0.3×10^5 cells"}, {"measurement": "OD of cleaved to uncleaved caspase-3 ratio", "setting": "IPF-lung myofibroblasts; CMH plus anti-Fas mAb, vehicle 0.3", "result": 2.8}, {"measurement": "Likelihood to undergo Fas-induced apoptosis vs. vehicle", "setting": "IPF-lung myofibroblasts; from cleaved to uncleaved caspase-3 ratios", "result": 10, "unit": "times"}, {"measurement": "Inhibition of HDAC6", "setting": "HDAC6", "result": "Selective inhibition"}]}]}
